Results: US10975118B2, “Crystalline dipeptides useful in the synthesis of elamipretide” (Stealth BioTherapeutics Corp., priority 2018, dated 2021)
Values after ≈ are worked out from the molar mass of the structure shown. Where a SMILES comes first, the peptide text is derived from it. [ ]: non-standard residue; d: D form. The star is where a group is joined. Dmt = Cc1cc(O)cc(C)c1C[C@H](N)C(=O)O; Boc = CC(C)(C)OC(=O)*

Assays:
Assay type in all cases: physicochemical
[1] = In process precipitation results (MeOH/water); settings: aqueous with cosolvent or surfactant or cyclodextrin
Text: In Process Precipitation Results (MeOH/Water) of Compound I: […]

[2] = Preliminary precipitation studies (MeOH/water); settings: aqueous with cosolvent or surfactant or cyclodextrin, Normal addition, 10 mL/g, 25° C.
Text: Preliminary Precipitation Studies (MeOH/Water) of Compound I: […]

[3] = Preliminary single-solvent solubility, determined by HPLC (response curve)
Text: Preliminary Single-Solvent Solubility of Compound I: […]

[4] = Stability and handling of the isolated zwitterionic form (statement); settings: solid isolated from CH3OH/H2O with Na2CO3
Procedure: Preparation of the Zwitterionic Form of Compound II
[drawing 5] • 1. The crude HCl salt is suspended in CH3OH/H2O (1/1, v/v) • 2. The suspension is heated to 45-50° C. • 3. After the clear solution is formed, an aqueous solution of Na2CO3 (1.2 eq.) is added. During the addition, the solid begins to precipitate. • 4. The suspension is stirred for 1 h at 45° C., and then cooled to 15° C. and stirred for an additional hour. • 5. The solid is isolated by filtration and dried to provide Compound II with high purity (99.4 area %) by HPLC.
Formation of zwitterionic compound led to high purity material that was stable, easily handled, and highly crystalline.

Row | solubility ([1]; Experiment 2447-41, MeOH/Water 1:9, 13 mL/g) | solubility ([1]; Experiment 2447-47, MeOH/Water 1:5, 10 mL/g) | solubility ([2]; Experiment 1, MeOH/Water 1:3) | solubility ([2]; Experiment 2, MeOH/Water 1:5) | solubility ([2]; Experiment 3, MeOH/Water 1:9) | solubility ([2]; Experiment 4, MeOH/Water 1:19) | solubility ([3]; organic solvent or mixture, solvent EtOH (SDAG-7)) | solubility ([3]; organic solvent or mixture, solvent MeOAc) | solubility ([3]; organic solvent or mixture, solvent THF) | solubility ([3]; organic solvent or mixture, solvent iPrOAc) | solubility ([3]; solvent Water) | Structure (SMILES) | Stability of material [4]
1 | 2500 µg/mL (≈ 6.37 mM) | 4200 µg/mL (≈ 10.7 mM) | 7000 µg/mL (≈ 17.8 mM) | 5000 µg/mL (≈ 12.7 mM) | 3600 µg/mL (≈ 9.17 mM) | 2700 µg/mL (≈ 6.88 mM) | 155 mg/mL (≈ 394 mM) | 18.2 mg/mL (≈ 46.4 mM) | 84.5 mg/mL (≈ 215 mM) | 5.1 mg/mL (≈ 13 mM) | 4.1 mg/mL (≈ 10.4 mM) | CC(C)(C)OC(=O)NCCCC[C@H](N)C(=O)N[C@@H](Cc1ccccc1)C(N)=O [Compound I, L-Lys(Boc)-Phe-NH2] | –
2 | – | – | – | – | – | – | – | – | – | – | – | Cc1cc(O)cc(C)c1C[C@H](NC(=O)[C@@H](CCCNC(=N)N)NC(=O)OC(C)(C)C)C(=O)O [Compound II, Boc-D-Arg-DMT] (Boc-[dR]-[Dmt]-OH) | stable
